Data: US6020341A, “Enediyne quinone imines and methods of preparation and use thereof” (priority 1997, dated 2000)
Where two headings read alike, the source gives them in different places.

How the values were obtained:
[1] = test system: Chinese hamster lung cells (DC-3F); assay: Cytotoxicity, DC-3F; type: cell-based; conditions: for IC50 / IC90: Cricetulus griseus, DC3F; for IC90: read-out: Cytotoxic Concentration IC90
Excerpt: (§1) | cell growth by 50% (IC50) in μM.

[2] = test system: 833K solid tumor cells; assay: Growth inhibition, SRB assay, 833K; type: cell-based; conditions: Homo sapiens, Table 8, 833K
Experimental: Cells were platted on day 1, drug was added on day 2, and XTT assays (for HL-60, MT-2, MT-4 leukemic cells) or SRB assays (for 833K and SK-Br-3 solid tumor cells) were carried out on day 5.

[3] = test system: Human promyelocytic leukemic cell (HL-60); assay: Cytotoxicity, HL-60; type: cell-based; conditions: for IC50 / IC90: Homo sapiens; for IC90: read-out: Cytotoxic Concentration IC90
Excerpt: as §1

[4] = test system: MT4 cells; assay: Cytotoxicity, MT4; type: cell-based; conditions: Table 15, MT4
[5] = test system: DC-3F cells; assay: Single drug effect, SRB assay, DC-3F; type: cell-based, Chinese hamster; conditions: Cricetulus griseus, DC3F, Table 10, DC-3F, 72 h, read-out: Dm
[6] = test system: solid tumor; assay: In vivo toxicity and efficacy in tumor bearing mice (Tables 5-7); parameters: species or system mouse; conditions: i.p., in words
[7] = test system: CCRF-CEM/VBL cells; assay: Cytotoxicity, CCRF-CEM resistant to vinblastine; type: cell-based, human; conditions: for IC50 / IC90: Homo sapiens, CCRF-CEM; for IC90: read-out: Cytotoxic Concentration IC90
Excerpt: as §1

[8] = test system: Lewis lung adenocarcinoma; assay: Anticancer activity in B6D2F1 mice bearing Lewis lung adenocarcinoma; type: in vivo, mouse
Experimental: ^a Tumor (2.5 × 10E6 cells) was inoculated S.C. on day (-3).
Treatment started on day 1, I.P., Q.D.X5. Control had 6 mice and each dos
had 5 mice. Tumor size was evaluated on day 7, day 10 and day 14.

[9] = Table 14, vinblastine-resistant (VLB100)
[10] = Table 3, CCRF-CEM/VBL, EQI-6 = (1)
[11] = Table 11, 0.5 mg/kg i.p. Q.D.X5, Day 7
[12] = Table 11, 0.5 mg/kg i.p. Q.D.X5, Day 10
[13] = Table 11, 1.0 mg/kg i.p. Q.D.X5, Day 7
[14] = Table 11, 1.0 mg/kg i.p. Q.D.X5, Day 10
[15] = Table 11, 1.5 mg/kg i.p. Q.D.X5, Day 7
[16] = Table 11, 1.5 mg/kg i.p. Q.D.X5, Day 10
[17] = Table 11, 2.0 mg/kg i.p. Q.D.X5, Day 7
[18] = Table 11, 2.0 mg/kg i.p. Q.D.X5, Day 10

CO[C@@]12[C@H](COC(N)=O)C3=C(C(=O)C(C)=C(N)C3=O)N1C[C@@H]1N[C@@H]12 [mitomycin C]
IC50 ([1]; Table 2, DC-3F, read-out: concentration required to inhibit cell growth by 50% (IC50)): 81 nM | IC50 ([1]; Table 4, DC-3F, read-out: Cytotoxic Concentration IC50): 81.2 nM | IC90 ([1]; Table 4, DC-3F): 374 nM | IC50 ([1]; Table 13, DC-3F, read-out: Cytotoxic Concentration IC50): 59 nM | IC90 ([1]; Table 13, DC-3F): 166 nM | Cytotoxic Concentration IC95 ([1]; Table 4, DC-3F): 629 nM | ratio of IC50 to EQI-6 (in parentheses) ([1]; Table 4, DC-3F, EQI-6 = (1)): 45.1 × | ratio of IC90 to EQI-6 (in parentheses) ([1]; Table 4, DC-3F, EQI-6 = (1)): 34 × | ratio of IC95 to EQI-6 (in parentheses) ([1]; Table 4, DC-3F, EQI-6 = (1)): 31.6 × | Cytotoxic Concentration IC95 ([1]; Table 13, DC-3F): 235 nM | IC50 [2]: 300 nM | IC50 ([3]; HL-60, Table 1, HL-60, read-out: IC50): 48.4 nM | IC50 ([3]; HL-60, Table 2, HL60, read-out: concentration required to inhibit cell growth by 50% (IC50)): 48 nM | IC50 ([3]; HL-60, Table 3, HL-60, read-out: Cytotoxic Concentration IC50): 48.4 nM | IC90 ([3]; HL-60, Table 3, HL-60): 197 nM | IC50 ([3]; HL-60, Table 15, HL-60, read-out: Cytotoxic Concentration IC50): 51 nM | IC90 ([3]; HL-60, Table 15, HL-60): 167 nM | Cytotoxic Concentration IC95 ([3]; Table 3, HL-60): 319 nM | ratio of IC50 to EQI-6 (in parentheses) ([3]; Table 3, HL-60, EQI-6 = (1)): 83.4 × | ratio of IC90 to EQI-6 (in parentheses) ([3]; Table 3, HL-60, EQI-6 = (1)): 75.8 × | ratio of IC95 to EQI-6 (in parentheses) ([3]; Table 3, HL-60, EQI-6 = (1)): 72.5 × | Cytotoxic Concentration IC95 ([3]; Table 15, HL-60): 250 nM | IC50 ([4]; Homo sapiens, read-out: Cytotoxic Concentration IC50): 115 nM | IC90 ([4]; Homo sapiens, read-out: Cytotoxic Concentration IC90): 253 nM | Cytotoxic Concentration IC95 [4]: 331 nM | IC50 [5]: 59 nM | solid tumor growth inhibition / therapeutic efficacy [6]: Therapeutic efficacy in mice for both appeared similar | IC50 ([7]; Table 2, CCRF/VBL (MDR/pg-p), read-out: concentration required to inhibit cell growth by 50% (IC50)): 566 nM | IC50 ([7]; Table 3, CCRF-CEM/VBL, read-out: Cytotoxic Concentration IC50): 566 nM | IC90 ([7]; Table 3, CCRF-CEM/VBL): 2330 nM | IC50 ([7]; Table 14, vinblastine-resistant (VLB100), read-out: Cytotoxic Concentration IC50): 917 nM | IC90 [7, 9]: 2400 nM | Cytotoxic Concentration IC95 ([7]; Table 3, CCRF-CEM/VBL): 3770 nM | ratio of IC50 to EQI-6 (in parentheses) [7, 10]: 299.5 × | ratio of IC90 to EQI-6 (in parentheses) [7, 10]: 375.8 × | ratio of IC95 to EQI-6 (in parentheses) [7, 10]: 405.4 × | Cytotoxic Concentration IC95 [7, 9]: 3327 nM | AWC (average weight change) [8, 11]: -1.5 g | Avg Tumor Vol (T/C) [8, 11]: 0.530 | AWC (average weight change) [8, 12]: -0.1 g | Avg Tumor Vol (T/C) [8, 12]: 0.712 | AWC (average weight change) [8, 13]: -0.8 g | Avg Tumor Vol (T/C) [8, 13]: 0.380 | AWC (average weight change) [8, 14]: -0.9 g | Avg Tumor Vol (T/C) [8, 14]: 0.451 | AWC (average weight change) [8, 15]: -1.5 g | Avg Tumor Vol (T/C) [8, 15]: 0.340 | AWC (average weight change) [8, 16]: -1.3 g | Avg Tumor Vol (T/C) [8, 16]: 0.402 | mortality ([8]; Table 11, 2.0 mg/kg i.p. Q.D.X5): One of 5 mice died on day 7 | AWC (average weight change) [8, 17]: -1.8 g | Avg Tumor Vol (T/C) [8, 17]: 0.286 | AWC (average weight change) [8, 18]: 1.6 g | Avg Tumor Vol (T/C) [8, 18]: 0.485
